Measurements published in PubChem BioAssay (NCI).
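Protocol summary: plate cells (96-well), add compound at 5 concentrations, incubate 48 h, interpolate endpoints linearly. TGI denotes the concentration required for complete inhibition of growth.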 Where a SMILES comes first, the peptide text is derived from it. The star is where a group is joined. Cbz = O=C(OCc1ccccc1)*

Tests used:
Assay in all cases: NCI anticancer screen, dose series, 48 h
A498 renal = system: A498 renal
A549 NSCLC = system: A549 NSCLC
BT-549 breast = system: BT-549 breast
COLO 205 colon = system: COLO 205 colon
DU-145 prostate = system: DU-145 prostate
HCC-2998 colon = system: HCC-2998 colon
HOP-92 NSCLC = system: HOP-92 NSCLC
K-562 leukemia = system: K-562 leukemia
KM12 colon = system: KM12 colon
MOLT-4 leukemia = system: MOLT-4 leukemia
RPMI-8226 leukemia = system: RPMI-8226 leukemia
SF-268 CNS = system: SF-268 CNS
SF-295 CNS = system: SF-295 CNS
SF-539 CNS = system: SF-539 CNS
T-47D breast = system: T-47D breast
TK-10 renal = system: TK-10 renal
UO-31 renal = system: UO-31 renal
NCI-H522 lung = system: NCI-H522 lung
PC-3 prostate = system: PC-3 prostate
SR leukemia = system: SR leukemia

SMILES	TGI (A498 renal) [µM]	TGI (A549 NSCLC) [µM]	TGI (BT-549 breast) [µM]	TGI (COLO 205 colon) [µM]	TGI (DU-145 prostate) [µM]	TGI (HCC-2998 colon) [µM]	TGI (HOP-92 NSCLC) [µM]	TGI (K-562 leukemia) [µM]	TGI (KM12 colon) [µM]	TGI (MOLT-4 leukemia) [µM]	TGI (RPMI-8226 leukemia) [µM]	TGI (SF-268 CNS) [µM]	TGI (SF-295 CNS) [µM]	TGI (SF-539 CNS) [µM]	TGI (T-47D breast) [µM]	TGI (TK-10 renal) [µM]	TGI (UO-31 renal) [µM]	TGI (NCI-H522 lung) [µM]	TGI (PC-3 prostate) [µM]	TGI (SR leukemia) [µM]
Cc1ccc(S(=O)(=O)N2CCCSCCN(S(=O)(=O)c3ccc(C)cc3)CCCSCC2)cc1	> 100	> 100	> 100	> 100	> 100	> 100	> 100	> 100	> 100	> 100	> 100	> 100	> 100	> 100	> 100	> 100	> 100	–	–	–
O=[p+]1c2ccccc2[nH]c2ccccc21	> 100	> 100	–	> 100	> 100	> 100	> 100	> 100	> 100	> 100	–	> 100	> 100	> 100	> 100	> 100	–	> 100	> 100	> 100
O=C1C2CC=CCC2C(=O)N1n1c(Cc2ccccc2)n[nH]c1=O (centres undefined)	> 100	> 100	> 100	> 100	–	> 100	> 100	> 100	> 100	> 100	> 100	> 100	> 100	> 100	> 100	> 100	> 100	> 100	> 100	> 100
Cc1ccc(C)c(COCCOCn2c(=O)[nH]c(=O)c3cc(Br)ccc32)c1	> 100	> 100	–	> 100	> 100	> 100	> 100	> 100	> 100	> 100	–	> 100	> 100	> 100	> 100	> 100	> 100	> 100	> 100	> 100
COc1ccc(/C=C2\CN(C)CC3C2=NN(c2ccccc2)C3c2ccc(OC)cc2)cc1 (centres undefined)	> 100	> 100	> 100	> 100	> 100	> 100	> 100	> 100	> 100	> 100	> 100	> 100	> 100	–	> 100	91.8	> 100	> 100	–	–
CCOC(=O)CNC(=O)C(C)NC(=O)C(NC(=O)OCc1ccccc1)C(C)C (stereo not drawn) (Cbz-Val-Ala-Gly-OEt; configuration not given here)	–	> 100	> 100	> 100	> 100	> 100	> 100	> 100	> 100	> 100	> 100	> 100	> 100	> 100	–	> 100	> 100	> 100	> 100	> 100
Cc1nnc([C@@]2(C)CC[C@H]3[C@@H](CCC4=CC(=O)CC[C@@]43C)[C@@H]2CC#N)o1	> 100	> 100	> 100	> 100	–	–	> 100	> 100	> 100	> 100	> 100	> 100	> 100	> 100	–	> 100	> 100	> 100	> 100	> 100
CCOC(=O)c1cn2c(ccc3sc4ccccc4c(=O)c32)n1	> 100	> 100	> 100	> 100	> 100	> 100	> 100	> 100	> 100	> 100	> 100	> 100	> 100	> 100	–	> 100	> 100	> 100	> 100	> 100
COc1ccc(-c2nc3c(nc2-c2ccc(OC)cc2)N(C)S(=O)(=O)N=C3N)cc1	> 100	> 100	–	32.5	–	> 100	51.6	> 100	92.2	48.5	40.6	> 100	84.3	51.5	–	> 100	53.2	36	–	35.3
O=[N+]([O-])c1ccc(COc2cccc3cccnc23)cc1	79.2	> 100	–	33.5	–	> 100	> 100	35.9	96.5	31.4	39.2	68.7	> 100	92.7	–	52.5	68.1	19.4	–	13.6
CC(C)N(/C(F)=N\C(=O)Nc1ccccc1C(F)(F)F)C(C)C	–	> 100	–	> 100	–	99	64.2	> 100	> 100	–	> 100	> 100	> 100	> 100	–	> 100	> 100	–	> 100	> 100
O=C1CCCC2=C1CC1=C(CCCC1=O)N2c1cccc([N+](=O)[O-])c1	> 100	> 100	> 100	–	–	> 100	–	> 100	> 100	> 100	> 100	> 100	–	> 100	–	> 100	> 100	–	> 100	> 100
COc1cc2cc3c4c(cc(OC)c(OC)c4c2cc1OC)CCN3C(=O)CCC(=O)O	> 100	> 100	–	> 100	–	> 100	> 100	> 100	> 100	> 100	> 100	> 100	> 100	> 100	–	> 100	> 100	> 100	–	> 100
Cc1[nH]c(=O)nc(N(CCO)/N=C/c2ccc(Cl)cc2)c1C(=O)Nc1ccc(Cl)cc1	> 100	> 100	–	> 100	> 100	> 100	> 100	> 100	> 100	> 100	–	> 100	> 100	> 100	> 100	> 100	> 100	> 100	> 100	–
CN=C(NC)N(C)c1nc(=[N+](C)C)ss1	> 100	> 100	–	–	–	> 100	> 100	> 100	> 100	> 100	–	> 100	> 100	> 100	–	> 100	> 100	> 100	–	> 100
Cc1cc(C)c(C(=O)/C=C/c2ccccc2)c(C)c1	–	> 100	–	71.3	–	–	58.4	> 100	> 100	> 100	90.5	50.6	48.8	–	–	> 100	> 100	46.1	–	> 100
CCN(CC)CC(=O)Nc1ccc2c(c1)C(=O)c1ccc(NC(=O)CN(CC)CC)cc1C2=O	> 100	> 100	–	54.1	–	> 100	> 100	67.8	70	81.5	> 100	82.7	> 100	30.9	–	> 100	> 100	43.2	–	41.7
COC1=CC(=O)NCCN1	> 100	> 100	–	> 100	–	> 100	> 100	> 100	> 100	> 100	–	> 100	> 100	> 100	–	> 100	> 100	> 100	–	> 100
S=C(c1c[nH]c2ccccc12)N1CCCCC1	> 100	–	> 100	> 100	> 100	–	–	> 100	> 100	> 100	> 100	> 100	> 100	> 100	–	> 100	–	–	> 100	> 100
O=C1CCCC[C@H]1C(O)CC1CC(=O)N(c2ccccc2)C(=O)C1 (some centres undefined)	> 100	> 100	> 100	–	> 100	> 100	> 100	> 100	> 100	> 100	> 100	> 100	> 100	> 100	–	> 100	> 100	> 100	> 100	> 100
CS/C=C\C(=O)O[C@H]1C[C@@H]2[C@@H](O)c3occ(C)c3C[C@]2(C)[C@@H](C)C1	–	–	–	35.6	90.3	85.7	65.6	47	> 100	56.3	79.9	82.3	77	37.7	76.9	> 100	–	71.7	> 100	99.4
CC1=C/C(=C2/N=C(N(C)C)SS2)C(C)=N1	> 100	> 100	–	> 100	–	> 100	> 100	> 100	> 100	> 100	> 100	> 100	> 100	> 100	–	> 100	> 100	> 100	–	> 100
CCCCc1c2c(nc3c1CC/C(=C\c1ccc([N+](=O)[O-])cc1)C3=O)CCCC2	–	16.3	–	6.63	–	3.17	–	6.88	3.52	7.72	5.69	3.93	4.07	3.2	–	3.17	4.13	2.84	–	35.5
CN(C)Cc1cc(C(=O)/C=C/c2ccc(F)cc2)cc(CN(C)C)c1O	94.8	> 100	–	–	> 100	–	97.5	62.5	48.9	53.8	> 100	63.9	31.6	44.4	46.3	> 100	38.9	31.7	> 100	71.4
COc1ccc(N(C(=O)NCCO)c2ccccc2)cc1	> 100	> 100	–	> 100	> 100	> 100	> 100	> 100	> 100	> 100	> 100	> 100	> 100	> 100	> 100	> 100	> 100	> 100	> 100	> 100
Brc1ccc(-c2cc(-c3ccc4c(c3)OCO4)c(-c3cccs3)n2Cc2ccccc2)cc1	–	> 100	–	> 100	> 100	> 100	–	> 100	> 100	> 100	> 100	> 100	> 100	> 100	> 100	> 100	> 100	–	> 100	> 100
CC(C)(O)CCc1ccc(O)c2c(=O)c3c(O)c4c(cc3oc12)O[C@H]1OC=C[C@@]41O	–	> 100	> 62.5	0.378	–	< 0.0176	14.8	> 100	11.3	0.422	> 33.6	8.54	25.3	6.76	–	> 100	0.414	18.3	> 35.1	> 100
Clc1cccc2c1OCC1C(c3ccccc3)=NN(c3ccccc3)C21 (centres undefined)	> 100	> 100	–	> 100	–	> 100	> 100	> 100	> 100	> 100	> 100	> 100	> 100	–	–	> 100	> 100	> 100	–	–
